Test results taken from patent publication US5849766A, “Carbamoyl substituted heterocycles” (Eli Lilly and Company, priority 1997, dated 1998).

Tested on: thromboxane receptor
Test: Absence of Agonist Activity (pressor response in pithed rats)
Assay type: in vivo, rat
Description: 3. Absence of Agonist Activity.

Row | SMILES | pressor response (TXA2 agonist activity) (i.v., pithed rats, doses up to 10 mg/kg) | increase in the mean arterial pressure (0.1 mg/kg i.v., at one minute after dosing)
1 | O=C(O)CCCC/C=C(\c1ccc(-c2nc(C(=O)NCCCCC3CCCCC3)co2)cc1)c1cccnc1 [Example 2, (E)-7-[4-[4-[[(4-Cyclohexylbutyl)amino]carbonyl]-2-oxazolyl]phenyl]-7-(3-pyridyl)hept-6-enoic Acid] | absence of a pressor response | –
2 | O=C(O)CCC/C=C\CC1C2CCC(C2)C1NS(=O)(=O)c1ccccc1 (centres unmarked) [Example S-145] | – | transient, but significant, increase in the mean arterial pressure
